Like-named read-outs stand apart in the source and are kept apart here. Where a SMILES comes first, the peptide text is derived from it. [ ]: non-standard residue; d: D form. The star is where a group is joined. Sta = CC(C)C[C@H](N)[C@@H](O)CC(=O)O; Isovaleryl = CC(C)CC(=O)*

Data set [1] has as its system protease(s) found in the Photorhabdus broth. It counts as biochemical, Photorhabdus luminescens. Particulars: for Corrected Flu. Units (Fluorescence Units - background) / Percent Inhibition relative to protease activity at pH 8.0: pH 8. On the procedure:
Protease Inhibition and Classification Assays: Protease assays were performed using FITC-casein dissolved in water as substrate (0.08% final assay concentration). Proteolysis reactions were performed at 25° C. for 1 h in the appropriate buffer with 25 μl of Photorhabdus broth (150 μl total reaction volume). Samples were also assayed in the presence and absence of dithiothreitol. After incubation, an equal volume of 12% trichloroacetic acid was added to precipitate undigested protein. Following precipitation for 0.5 h and subsequent centrifugation, 100 μl of the supernatant was placed into a 96-well microtiter plate and the pH of the solution was adjusted by addition of an equal volume of 4N NaOH. Proteolysis was then quantitated using a Fluoroskan II fluorometric plate reader at excitation and emission wavelengths of 485 and 538 nm, respectively. Protease activity was tested over a range from pH 5.0-10.0 in 0.5 units increments. The following buffers were used at 50 mM final concentration: sodium acetate (pH 5.0-6.5); Tris-HCL (pH 7.0-8.0); and bis-Tris propane (pH 8.5-10.0). […] The protease inhibitors used included E-64 (L-trans-expoxysaccinylleucylamido[4-,-guanidino]-butane), 3,4 dichloroisocoumarin, Leupeptin, pepstatin, amastatin, ethylenediaminetetraacetic acid (EDTA) and 1,10 phenanthroline.

Data set [2] has as its system neonate Diabrotica undecimpunctata howardi (Southern corn rootworm, SCR). Briefly: SCR bioassay on artificial diet (Example 13; used in Examples 14-16). It counts as in vivo.
For the next data set, the system named is 41/38 kDa protease. Description: Inhibition of purified 41/38 kDa protease. It counts as biochemical, Photorhabdus luminescens. The procedure: (§1) Activity assays of the different proteases in W-14 day three culture broth were performed using FITC-casein dissolved in water as substrate (0.02% final assay concentration). Proteolysis experiments were performed at 37° C. for 0-0.5 h in 0.1M Tris-HCl (pH 8.0) with different protein fractions in a total volume of 0.15 ml. Reactions were terminated by addition of an equal volume of 12% trichloroacetic acid (TCA) dissolved in water. After incubation at room temperature for 0.25 h, samples were centrifuged at […] for 0.25 h and 0.10 ml aliquots were removed and placed into 96-well microtiter plates. The solution was then neutralized by the addition of an equal volume of 2 N sodium hydroxide, followed by quantitation using a Fluoroskan II fluorometric plate reader with excitation and emission wavelengths of 485 and 538 nm, respectively. Activity measurements were performed using FITC-Casein with different protease concentrations at 37° C. for 0-10 min. A unit of activity was arbitrarily defined as the amount of enzyme needed to produce 1000 fluorescent units/min and specific activity was defined as units/mg of protease.
(§2) Inhibition studies were performed using two zinc-metalloprotease inhibitors; 1,10 phenanthroline and N-(a-rhamnopyranosyloxyhydroxyphosphinyl)-Leu-Trp(phosphoramidon) with stock solutions of the inhibitors dissolved in 100% ethanol and water, respectively. […]

For data set [3], the system named is protease activity of three day W-14 crude broth. Description: FITC-casein protease assay, three day W-14 crude broth. It is filed as biochemical, Photorhabdus luminescens. To be noted: inhibitor 0.5-1.0 mg/ml per reaction. On the procedure: as §1, §2
The test system of the next data set is 58 kDa protease. Description: Inhibition of purified 58 kDa protease. It is filed as biochemical, Photorhabdus luminescens. The procedure: as §1, §2
Setting [4] is: inhibitor 0.5 μg/μl final concentration, Day 1 production broth.

In the case of `CC(C)CC(=O)N[C@H](C(=O)N[C@H](C(=O)N[C@@H](CC(C)C)[C@@H](O)CC(=O)N[C@@H](C)C(=O)N[C@@H](CC(C)C)[C@@H](O)CC(=O)O)C(C)C)C(C)C` [Pepstatin, pepstatin] (Isovaleryl-VV[Sta]A[Sta]-OH), in data set [1] (setting [4]), the “Corrected Flu. Units (Fluorescence Units - background)” value (“Corrected Flu. Units” for short) came to 13441 Fluorescence Units and the “Percent Inhibition relative to protease activity at pH 8.0” value was determined as 0%.
In the case of “toxin B: 860 kDa complex purified from activity peak B; major peptides TcbAii and TcbAiii (or intact TcbA)”, the “LD50 against SCR after SCR gut content treatment” value in data set [2] (40 μg toxin with 50 μl SCR gut content, 37° C. overnight) was “about 70 ng”. The “fold increase of SCR activity by SCR gut content treatment” value in data set [2] (LD50 treated against untreated) stood at 10 fold. Also, in data set [2] (in vivo), the “LD50 against SCR” value is listed as “around 700 ng” and the “activity against Southern corn root worm” value is reported as “active”. Moreover, the “toxin activity after protease K treatment” value in data set [2] (separate experiment) is “completely eliminated toxin activity”.
Regarding “toxin A: 860 kDa complex purified from activity peak A; major peptides TcdAii and TcdAiii”, in data set [2] (in vivo), the “activity against Southern corn root worm” value is recorded as “active”.
“TcbA: peptide TcbA, SEQ ID NO:12; in Table 24 bioassay lines the TcbA-enriched toxin B complex fraction of W-14 broth”: the “SCR Weight (mg/insect), average weight of live insect after 5 days on diet” value in data set [2] (38 kDa protease treatment) came to 0.1 mg/insect; in data set [2] (Control (protease omitted)), 0.2 mg/insect. In addition, the “LD50 (μg protein)” value in data set [2] (38 kDa protease treatment, 37° C., 90 min) came out at 0.52 μg protein; in data set [2] (Control (protease omitted)), 2.1 μg protein. Also, the “fold increase of SCR insecticidal activity by 38 kDa protease treatment” value in data set [2] (comparison of activity in several dilutions) is recorded as 3 to 4 fold.
Turning to `CC(C)C[C@H](NC(=O)[C@H]1O[C@@H]1C(=O)O)C(=O)NCCCCN=C(N)N` (relative stereo) [Strain E-64, L-trans-expoxysaccinylleucylamido[4-,-guanidino]-butane], in data set [1], the “Corrected Flu. Units” value was found to be 14259 Fluorescence Units and the “Percent Inhibition relative to protease activity at pH 8.0” value is 0%.
Take `O=c1oc(Cl)c(Cl)c2ccccc12` [3,4 Dichloroisocoumarin, 3,4 dichloroisocoumarin]: in data set [1] (setting [4]), the “Corrected Flu. Units” value is on record as 7956 Fluorescence Units and the “Percent Inhibition relative to protease activity at pH 8.0” value is on record as 39%.
As for `c1cnc2c(c1)ccc1cccnc12` [1,10 Phenanthroline, 1,10 phenanthroline], the “inhibition of purified 41/38 kDa protease” value with 41/38 kDa protease is reported as “completely inhibited”. Also, the “effect on protease activity of three day W-14 crude broth” value in data set [3] is recorded as “complete elimination of all protease activity”. In addition, the “inhibition of purified 58 kDa protease” value with 58 kDa protease is listed as “completely inhibited”. Further, the “inhibition of all protease activity of crude broth” value in data set [1] (final concentration of 50 μg) is recorded as “complete inhibition”. Besides, in data set [1] (in 100 μl of a 2 mg/ml crude broth solution), the IC50 is 5 µg. Besides, in data set [1] (setting [4]), the “Corrected Flu. Units” value was 15 Fluorescence Units and the “Percent Inhibition relative to protease activity at pH 8.0” value amounted to 99%.
As to `CC(C)C[C@@H](N)[C@H](O)C(=O)N[C@H](C(=O)N[C@H](C(=O)N[C@@H](CC(=O)O)C(=O)O)C(C)C)C(C)C` [Amastatin, amastatin], in data set [1] (setting [4]), the “Corrected Flu. Units” value was found to be 12474 Fluorescence Units and the “Percent Inhibition relative to protease activity at pH 8.0” value stood at 4%.
Regarding `CC(=O)N[C@@H](CC(C)C)C(=O)N[C@@H](CC(C)C)C(=O)N[C@H](C=O)CCCNC(=N)N` [Leupeptin], in data set [1] (setting [4]), the “Corrected Flu. Units” value came out at 13074 Fluorescence Units and the “Percent Inhibition relative to protease activity at pH 8.0” value stood at 0%.
Regarding `CC(C)C[C@H](NP(=O)(O)O[C@@H]1O[C@@H](C)[C@H](O)[C@@H](O)[C@H]1O)C(=O)N[C@@H](Cc1c[nH]c2ccccc12)C(=O)O` [phosphoramidon, N-(a-rhamnopyranosyloxyhydroxyphosphinyl)-Leu-Trp], in the data set on 41/38 kDa protease, the “inhibition of purified 41/38 kDa protease” value is on record as “inhibited”. Moreover, the “reduction of protease activity of three day W-14 crude broth” value in data set [3] (not further reduced with additional inhibitor) was “about 56%”. In the data set on 58 kDa protease, the “inhibition of purified 58 kDa protease” value was “insensitive”.
Regarding `O[C@H](CS)[C@H](O)CS` (racemic) [DTT, dithiothreitol], in data set [1] (samples assayed in presence and absence of dithiothreitol), the “effect on protease activity” value was “did not have any effect”.

Values taken from US6528484B1, “Insecticidal protein toxins from Photorhabdus” (priority 1993, dated 2003).
